# Measured values reported in patent publication US12551573B2, “Compositions and methods for the targeting of PCSK9” (Scribe Therapeutics Inc., priority 2022, dated 2026).
# Key:
# [1] = tested on: human PCSK9 locus; assay: RNA-seq: normalized PCSK9 read counts (log2FC) in transfected Huh7 cells; format: cell-based; details: mRNA + gRNA scaffold 316 (v1), 6 and 26 days post-transfection, vs untreated naive
# Source text: (§1) Seeded Huh7 cells were transfected with mRNA encoding a catalytically-active CasX 676, dXR1, or LTRP5-ADD-ZIM3 and a gRNA with scaffold 316 and a spacer targeting the PCSK9 locus. Cells were harvested at 6 and 26 days post-transfection and subsequently lysed and stored in DNA/RNA Shield (Zymo Research). As an additional control, untreated, naïve cells were also harvested. The collected samples were subjected to gDNA/RNA extraction using the Quick-DNA/RNA Miniprep Plus kit (Zymo Research). RNA samples were used for total RNA sequencing (RNA-seq), which was performed by a third-party. Raw FASTQ files were received and processed with FASTQC, and adapters were trimmed using Trim Galore. Transcript expression was then quantified against the hg38 genome using Salmon to generate normalized counts for each gene (transcripts per million, or TPM). Differential expression analysis was performed using DESeq2. Genes with fewer than 10 counts in all samples were omitted from analysis, and all pairwise comparisons (e.g., differential gene expression analyses between untreated and treated conditions at the two individual timepoints) were done with significance thresholds of |log 2FC|>2 and adjusted p-value<0.001.
# [2] = tested on: human PCSK9 locus; assay: Secreted PCSK9 by ELISA (normalized to total cell count) in Huh7 cells transfected with mRNA and gRNA; format: cell-based; details: paired with LTRP5-ADD-ZIM3 mRNA, Huh7 cells, 6 days post-transfection; for Secreted PCSK9: normalized to total cell count; for Percent reduction in PCSK9 secretion: relative to non-targeting gRNA control; for Average percent reduction in PCSK9 secretion: averaged from the two doses
# Procedure, shortened: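 Huh7 cells were transfected with CasX or epigenetic-editor mRNA plus PCSK9- or B2M-targeting gRNA (scaffold 316). In one screen, LTRP5-ADD-ZIM3 mRNA:gRNA was given at 50:25 or 25:12.5 ng by Lipofectamine 3000. Secreted PCSK9 was measured by ELISA in supernatant 4-87 days post-transfection and normalized to total cell count.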
# [3] = tested on: Huh7 cells; assay: RNA-seq: differentially regulated off-target genes in transfected Huh7 cells; format: cell-based, human; details: 6 and 26 days, |log2FC|>2 and adjusted p-value<0.001, vs untreated naive
# Source text: as §1
# [4] = tested on: human PCSK9 locus; assay: Secreted PCSK9 by ELISA in HepG2 cells transfected with CasX 676 mRNA #2 and PCSK9-targeting gRNA; format: cell-based; details: CasX 676 mRNA #2 + gRNA scaffold 316 (v1), two days post-transfection
# Description: In vitro transcription of CasX 676 mRNA #2 (sequence listed in Table 28, below) was performed as described in Example 7, below. Guide RNAs using scaffold 316 and a PCSK9-targeting spacer were synthesized with a v1 modification profile (as discussed in Example 7). Spacers 6.1, 6.8, 6.86, 6.114, 6.197, and 6.203 (sequences listed in Table 24) were assessed for intracellular PCSK9 retention.
# To determine whether use of certain PCSK9-targeting spacers would result in potential intracellular PCSK9 retention, ˜50,000 HepG2 cells were seeded per well in a 96-well plate. CasX 676 mRNA #2 was transfected into HepG2 cells with a PCSK9-targeting gRNA using Lipofectamine™. After a media change, the following were harvested two days post-transfection: 1) media supernatant to measure secreted PCSK9 protein levels by ELISA; and 2) transfected cells for western blotting analysis to evaluate intracellular PCSK9 levels. Harvested cells were subjected to whole cell lysate extraction for western blotting analysis. Briefly, extracted protein samples were resolved by SDS-PAGE followed by immunoblotting to analyze levels of pro-PCSK9 and processed PCSK9, which were quantified by densitometry. Secreted PCSK9 levels in the media supernatant were analyzed using the BioLegend® ELISA MAX™ kit following the manufacturer's instructions. […]
# [5] = tested on: PCSK9 protein; assay: Western blot of intracellular pro-PCSK9 and processed PCSK9 in transfected HepG2 cells; format: cell-based, human; details: CasX 676 mRNA #2 + gRNA, western blot densitometry, two days post-transfection
# Description: To determine whether use of certain PCSK9-targeting spacers would result in potential intracellular PCSK9 retention, ˜50,000 HepG2 cells were seeded per well in a 96-well plate. CasX 676 mRNA #2 was transfected into HepG2 cells with a PCSK9-targeting gRNA using Lipofectamine™. After a media change, the following were harvested two days post-transfection: 1) media supernatant to measure secreted PCSK9 protein levels by ELISA; and 2) transfected cells for western blotting analysis to evaluate intracellular PCSK9 levels. Harvested cells were subjected to whole cell lysate extraction for western blotting analysis. Briefly, extracted protein samples were resolved by SDS-PAGE followed by immunoblotting to analyze levels of pro-PCSK9 and processed PCSK9, which were quantified by densitometry. Secreted PCSK9 levels in the media supernatant were analyzed using the BioLegend® ELISA MAX™ kit following the manufacturer's instructions. Naïve, untreated cells and cells transfected with CasX 676 mRNA #2 only served as two experimental controls.
# [6] = tested on: HBEGF locus; format: cell-based, human; details: HEK293T; dCasX491 fusion, scaffold 174 spacer 34.28; 2 ng/ml diphtheria toxin for 48 hours
Substance,PCSK9 expression (RNA-seq) [1],Secreted PCSK9 ([2]; 25 ng mRNA:12.5 ng gRNA) [ng/mL],Percent reduction in PCSK9 secretion ([2]; 25 ng mRNA:12.5 ng gRNA) [%],Secreted PCSK9 ([2]; 50 ng mRNA:25 ng gRNA) [ng/mL],Percent reduction in PCSK9 secretion ([2]; 50 ng mRNA:25 ng gRNA) [%],Average percent reduction in PCSK9 secretion [2] [%],number of differentially regulated off-target genes [3],reduction in secreted PCSK9 levels compared to cells transfected with CasX 676 mRNA only [4] [%],intracellular pro-PCSK9 / intracellular protein levels [5],log 2 (fold change) of abundance before and after selection [6]
"AGGGUGUGGGUGCUUGACGC (listed as RNA, chemistry not given here) [spacer 6.154, Promoter]",durably repress PCSK9 expression through day 26,24.48,65.64,6.87,91.65,78.64,higher number of differentially regulated off-target genes,,,
"AUGGUAGGCACAAGCUCAGC (listed as RNA, chemistry not given here) [spacer 6.133, Promoter]",durably repress PCSK9 expression through day 26,42.13,40.86,29.45,64.21,52.53,lowest number of differentially regulated off-target genes,,,
"CACUGAAUAGCGCAGCCGCA (listed as RNA, chemistry not given here) [spacer 6.167, Intron 1]",durably repress PCSK9 expression through day 26,66.61,6.51,39.55,51.93,29.22,higher number of differentially regulated off-target genes,,,
"GAGGAGGACGGCCUGGCCGA (listed as RNA, chemistry not given here) [spacer 6.1, Exon 1]",,32.86,53.88,18.21,77.86,65.87,,~50,did not result in substantially increased pro-PCSK9 levels,
"ZIM3: human ZIM3 KRAB repressor domain, SEQ ID NO: 128 [reference compound]",,,,,,,,,,1.7787
"standard ZNF10: human ZNF10 KRAB repressor domain, SEQ ID NO: 129 [reference compound]",,,,,,,,,,1.3637
